From patent publication US8277807B2, “Pharmaceutical combinations” (Astex Therapeutics Limited, priority 2006, dated 2012)
Counter-ions that a name gives are not always drawn.

What was measured:
[1] = Salt properties of the L-lactate of compound (1); format: physicochemical
HCT116 cell line = assay: Anti-proliferative activity, Alamar Blue assay; format: cell-based; conditions: Homo sapiens, HCT-116, 72 h, read-out: IC50 value against the HCT116 cell line
Protocol: The anti-proliferative activities of compounds for use in the combinations of the invention can be determined by measuring the ability of the compounds to inhibition of cell growth in a number of cell lines such as the human colon cancer cell line HCT116. […] The method is based on the ability of viable cells to reduce resazurin to its fluorescent product resorufin. […] The number of viable cells is determined by Alamar Blue assay as before. Cell lines can be obtained from the ECACC (European Collection of cell Cultures).

[2] = molecular target: T1, Human Hsp90α N-terminal domain (Homo sapiens, UniProt P07900); assay: Isothermal titration calorimetry (ITC) binding to Hsp90; conditions: 25 mM Tris, 100 mM NaCl, 1 mM MgCl2, 1 mM TCEP, 5% DMSO, pH 7.4
T1 construct: Cloning, expression, and purification of the Human Hsp90α N-terminal domain were performed according to published methods; made in house
Protocol: The ability of the compounds for use in the combinations of the invention to bind to human Hsp90 proteins was determined using isothermal titration calorimetry.
Isothermal titration calorimetry (ITC) experiments were performed with a VP-ITC titration calorimeter (Microcal Inc., Northampton, Mass., USA). […] All solutions were filtered and degassed prior to a titration being carried out. The enthalpy change resulting from each injection of ligand was obtained through integration of the calorimetric signal. Data were analysed using Origin 7.0 (Microcal Software Inc., Northampton, Mass.). Heats of dilution were estimated using the final injections of each individual titration and subtracted before data fitting. Different ITC experimental formats were employed in order to obtain compound dissociation constants (Kd's) over a wide range of affinities. […] In this type of experiment the stoichiometry parameter (N) was locked at 1 for data fitting.

[3] = Solid-state stability of L-lactate crystal forms (XRPD); format: physicochemical; conditions: in air; 40° C. and 75% RH where stated
From the text: Samples for X-ray powder diffraction (XRPD) data collection were gently ground by marble mortar and loaded into a crystallographic capillary (from Hampton Research, Quartz or Glass Type 10, 0.4 or 0.7 mm diameter). Diffraction patterns were collected at room temperature using CuKα radiation (λ=1.5418 Å) from a Rigaku rotating anode RU3HR, Osmic blue confocal optics, ¼ c goniometer and a Rigaku HTC image plate detector. 2D Images were collected while spinning φ axis with a detector to crystal distance of 250 mm. Data collection was controlled by CrystalClear software and 2D images were converted to 1D plot (20 vs. Intensity) by Datasqueeze (intensity averaged over the azimuthal angle 0<χ<360° for 2θ range 3-30° in 0.02° steps). In house program AstexXRPD was used for manipulation and visualisation of 1D XRPD patterns.

PKA = conditions: data published 2002; read-out: IC50, inhibition of PKA; cited from earlier work
PKG = conditions: data published 2002; read-out: IC50, inhibition of PKG; cited from earlier work
PKC = conditions: data published 2002; read-out: IC50, inhibition of PKC; cited from earlier work
OVCAR-3 tumour cells = conditions: concentrations of 50 and 100 microM; PKB amplified; cited from earlier work
APL patients = conditions: in vivo; cited from earlier work
[4] = system: P-glycoprotein-overexpressing subline of CCRF-CEM; conditions: subline of leukemic cell line CCRF-CEM; Chou et al. 1998; read-out: IC50 against P-glycoprotein-overexpressing subline; cited from earlier work

Structure (SMILES): CC(C)c1cc(C(=O)N2Cc3ccc(CN4CCN(C)CC4)cc3C2)c(O)cc1O.C[C@H](O)C(=O)O [(2,4-dihydroxy-5-isopropyl-phenyl)-[5-(4-methyl-piperazin-1-ylmethyl)-1,3-dihydro-isoindol-2-yl]-methanone L-lactate salt]
- hygroscopicity [1]: non-hygroscopic
- rate of solubility ([1]; compared with free base and hydrochloric and sulphuric acid salts): better rate of solubility than the free base and other salts tested

Structure (SMILES): CC(C)c1cc(C(=O)N2Cc3ccccc3C2)c(O)cc1O [Example 5, (1,3-Dihydro-1H-isoindol-2-yl)-(2,4-dihydroxy-5-isopropyl-phenyl)-methanone]
- IC50 (HCT116 cell line): < 1 µM

Structure (SMILES): CC(C)c1cc(C(=O)N2Cc3ccc(C(=O)N4CCNCC4)cc3C2)c(O)cc1O [Example 54, (2,4-dihydroxy-5-isopropyl-phenyl)-[5-(piperazine-1-carbonyl)-1,3-dihydro-isoindol-2-yl]-methanone hydrochloride]
- IC50 (HCT116 cell line): < 1 µM

Structure (SMILES): CC(C)c1cc(C(=O)N2Cc3ccc(CN4CCN(C)CC4)cc3C2)c(O)cc1O [Example 55, (2,4-dihydroxy-5-isopropyl-phenyl)-[5-(4-methyl-piperazin-1-ylmethyl)-1,3-dihydro-isoindol-2-yl]-methanone]
- Kd [2]: < 0.1 µM

Structure (SMILES): CC(C)c1cc(C(=O)N2Cc3ccc(CN4CCN(C)CC4)cc3C2)c(O)cc1O.C[C@H](O)C(=O)O [Form FL1, (2,4-dihydroxy-5-isopropyl-phenyl)-[5-(4-methyl-piperazin-1-ylmethyl)-1,3-dihydro-isoindol-2-yl]-methanone L-lactate]
- stability of crystal form [3]: stable in air and at 40 °C and 75% RH for at least one month

Structure (SMILES): CC(C)c1cc(C(=O)N2Cc3ccc(CN4CCN(C)CC4)cc3C2)c(O)cc1O.C[C@H](O)C(=O)O [Form FL3, (2,4-dihydroxy-5-isopropyl-phenyl)-[5-(4-methyl-piperazin-1-ylmethyl)-1,3-dihydro-isoindol-2-yl]-methanone L-lactate]
- stability of crystal form [3]: transforms in air into form FL1

Structure (SMILES): O=S(=O)(NCCNCC=C(c1ccccc1)c1ccccc1)c1cccc2cnccc12 [NL-71-101]
- IC50 (PKA): 9 µM
- IC50 (PKG): 36 µM
- IC50 (PKC): 104 µM
- Apoptosis in OVCAR-3 tumour cells (OVCAR-3 tumour cells): induced apoptosis

Structure (SMILES): CC1=C(/C=C/C(C)=C/C=C/C(C)=C/C(=O)O)C(C)(C)CCC1 [Tretinoin, all-trans retinoic acid]
- remissions in APL patients (APL patients): 64-100%

Structure (SMILES): C/C1=C/C[C@@H](/C(C)=C/c2csc(C)n2)OC(=O)C[C@H](O)C(C)(C)C(=O)[C@H](C)[C@@H](O)[C@@H](C)CCC1 [desoxyepothilone B]
- IC50 [4]: 0.017 µM

Structure (SMILES): CC(C)c1cc(C(=O)N2Cc3ccc(CN4CCN(C)CC4)cc3C2)c(O)cc1O.C[C@H](O)C(=O)O [form FL2, (2,4-dihydroxy-5-isopropyl-phenyl)-[5-(4-methyl-piperazin-1-ylmethyl)-1,3-dihydro-isoindol-2-yl]-methanone L-lactate]
- stability of crystal form [3]: stable in air
